Source: the NIST ThermoML archive (doi:10.1021/acs.jced.8b01233)
Where “and” joins values, the source holds several entries; their conditions need not be identical. Equal entries are not always repeated. ± gives the expanded uncertainty stated by the source.

Settings: for speed of sound / mass density / viscosity: 102 kPa, Liquid; for speed of sound: Frequency=3 MHz, Single path-length method; for mass density: Vibrating tube method; for viscosity: Concentric cylinders viscometry; for surface tension liquid-gas: Pendant drop shape

CCCCCCCCCCCC [dodecane]
Settings | mass density [kg/m3] | speed of sound [m/s] | surface tension liquid-gas [mN/m] | viscosity [mPa·s]
288.15 K | 752.41 ± 0.53 | 1317.4 ± 1 | – | –
293.15 K | 748.79 ± 0.53 | 1297.9 ± 1 | – | 1.51 ± 0.02
295 K | – | – | 24.9 ± 0.3 | –
298.15 K | 745.16 ± 0.53 | 1278.7 ± 1 | – | –
303.15 K | 741.53 ± 0.53 | 1259.5 ± 1 | – | 1.25 ± 0.02
313.15 K | 734.25 ± 0.53 | 1221.7 ± 1 | – | 1.06 ± 0.02
323.15 K | 726.94 ± 0.53 | 1184.5 ± 1 | – | 0.916 ± 0.021
333.15 K | 719.59 ± 0.53 | 1148.2 ± 1 | – | 0.798 ± 0.021

CC(CC(C)(C)C)CC(C)(C)CC(C)(C)C (stereo unspecified) [2,2,4,4,6,8,8-heptamethylnonane]
Settings | mass density | speed of sound [m/s] | surface tension liquid-gas [mN/m] | viscosity [mPa·s]
253.15 K | 811.5 ± 2 kg/m3 and 811.4 ± 2 kg/m3 | – | – | 14.1 ± 0.1
288.15 K | 787.84 ± 0.52 kg/m3 and 787.76 ± 0.52 kg/m3 | 1305.1 ± 1 | – | –
293.15 K | 784.51 ± 0.52 kg/m3 and 784.4 ± 0.52 kg/m3 | 1286 ± 1 | – | 3.73 ± 0.03
295 K | – | – | 24.2 ± 0.3 | –
298.15 K | 781.15 ± 0.52 kg/m3 and 781.05 ± 0.52 kg/m3 | 1267.1 ± 1 | – | –
303.15 K | 777.8 ± 0.52 kg/m3 and 777.7 ± 0.52 kg/m3 | 1248.1 ± 1 | – | 2.96 ± 0.03
313.15 K | 771.09 ± 0.52 kg/m3 and 770.99 ± 0.52 kg/m3 | 1211.8 ± 1 | – | 2.4 ± 0.02
323.15 K | 764.36 ± 0.52 kg/m3 and 764.27 ± 0.52 kg/m3 | 1176.1 ± 1 | – | 1.98 ± 0.02
333.15 K | 757.62 ± 0.52 kg/m3 and 757.53 ± 0.52 kg/m3 | 1141.3 ± 1 | – | 1.66 ± 0.02

CCCCC1CCCCC1 [butylcyclohexane]
Settings | mass density [kg/m3] | speed of sound [m/s] | surface tension liquid-gas [mN/m] | viscosity [mPa·s]
253.15 K | 829.9 ± 2 | – | – | 3.08 ± 0.06
288.15 K | 803.07 ± 0.73 | 1348.8 ± 1.2 | – | –
293.15 K | 799.33 ± 0.73 | 1328.3 ± 1.2 | – | 1.32 ± 0.02
294.5 K | – | – | 26.6 ± 0.4 | –
298.15 K | 795.57 ± 0.73 | 1308.1 ± 1.2 | – | –
303.15 K | 791.81 ± 0.73 | 1288 ± 1.2 | – | 1.11 ± 0.02
313.15 K | 784.27 ± 0.73 | 1248.6 ± 1.2 | – | 0.95 ± 0.021
323.15 K | 776.71 ± 0.73 | 1210.1 ± 1.2 | – | 0.826 ± 0.021
333.15 K | 769.1 ± 0.73 | 1172.6 ± 1.2 | – | 0.729 ± 0.021

CCCCc1ccccc1 [butylbenzene]
Settings | mass density [kg/m3] | speed of sound [m/s] | surface tension liquid-gas [mN/m] | viscosity [mPa·s]
253.15 K | 892.8 ± 2 | – | – | 2.36 ± 0.06
288.15 K | 864.7 ± 0.31 | 1373.7 ± 0.8 | – | –
293.15 K | 860.69 ± 0.31 | 1353.8 ± 0.8 | – | 1.04 ± 0.02
295 K | – | – | 28.8 ± 0.3 | –
298.15 K | 856.68 ± 0.31 | 1334.1 ± 0.8 | – | –
303.15 K | 852.65 ± 0.31 | 1314.5 ± 0.8 | – | 0.891 ± 0.021
313.15 K | 844.6 ± 0.31 | 1276.1 ± 0.8 | – | 0.773 ± 0.021
323.15 K | 836.51 ± 0.31 | 1238.4 ± 0.8 | – | 0.679 ± 0.021
333.15 K | 828.38 ± 0.31 | 1201.7 ± 0.8 | – | 0.601 ± 0.021
